The results in this text go back to patent publication US20240360178A1, “MACROCYCLIC IMMUNOMODULATORS” (Bristol-Myers Squibb Company, priority 2021, published 2024).

The target of the experiment is T1, human PD-1 (Jurkat-PD-1 cells) / PE-labeled human PD-L1-Ig (Homo sapiens, UniProt Q15116).
T1 construct: expressed in transfected cells; host or cells: Jurkat cell line over-expressing human PD-1
In words: Jurkat-PD-1 Cell Binding High-Content Screening Assay (CBA); Jurkat hPD1-PDL1 assay. The settings on record: Jurkat cell line over-expressing human PD-1; PE-labeled PD-L1-Ig 20 nM final; compound incubated 2 hours at 37° C.; read-out: Jurkat HPD1-PDL1 IC50. In a few lines:
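Compound was added to Jurkat-PD-1 cells in DMEM plus 10% fetal calf serum and incubated 2 hours at 37° C. Binding of phycoerythrin-conjugated PD-L1-Ig (20 nM final) to the cells was imaged.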

Positions of bridges follow the written chain, without caps; N, C: chain ends. Non-standard residues stand in square brackets, D forms with d. Residues, ends and D or L forms follow the SMILES beside them. ξ: configuration not given here. *: point of attachment. Phe(3,4,5-F3) = N[C@@H](Cc1cc(F)c(F)c(F)c1)C(=O)O; Phe(4-CH2NH2) = NCc1ccc(C[C@H](N)C(=O)O)cc1; Bip = N[C@@H](Cc1ccc(-c2ccccc2)cc1)C(=O)O; Phe(3-Me) = Cc1cccc(C[C@H](N)C(=O)O)c1; Val(3-OH) = CC(C)(O)[C@H](N)C(=O)O; NMeF = CN[C@@H](Cc1ccccc1)C(=O)O; 3Pal = N[C@@H](Cc1cccnc1)C(=O)O; Cha = N[C@@H](CC1CCCCC1)C(=O)O; dPip = O=C(O)[C@H]1CCCCN1; Carboxymethyl = O=C(O)C*; NMeA = CN[C@@H](C)C(=O)O; Nle = CCCC[C@H](N)C(=O)O; Orn = NCCC[C@H](N)C(=O)O; Dab = NCC[C@H](N)C(=O)O; Dap = NC[C@H](N)C(=O)O; ξS = NC(CO)C(=O)O; Sar = CNCC(=O)O

T1 sequence (Q15116 25-288): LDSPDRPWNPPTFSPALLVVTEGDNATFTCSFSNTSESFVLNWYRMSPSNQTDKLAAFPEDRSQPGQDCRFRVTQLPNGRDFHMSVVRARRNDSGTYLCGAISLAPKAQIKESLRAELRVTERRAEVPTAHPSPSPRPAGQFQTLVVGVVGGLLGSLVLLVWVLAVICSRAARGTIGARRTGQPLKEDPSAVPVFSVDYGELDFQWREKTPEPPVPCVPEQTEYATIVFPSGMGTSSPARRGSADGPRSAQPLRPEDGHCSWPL

Take `CC(C)C[C@@H]1NC(=O)[C@H](CCCNC(=N)N)NC(=O)[C@H](Cc2ccccc2)N(C)C(=O)[C@H](C)N(C)C(=O)[C@H](CCCNC(=N)N)NC(=O)[C@H](Cc2ccc(-c3ccccc3)cc2)NC(=O)[C@H](C(C)C)NC(=O)[C@H](Cc2c[nH]c3ccccc23)NC(=O)[C@H](CC(=O)O)NC(=O)[C@H](Cc2ccc(O)cc2)NC(=O)[C@H](Cc2ccccc2)NC(=O)CSC[C@@H](C(=O)NCC(N)=O)NC(=O)[C@H](CCCN)NC(=O)[C@H](C(C)C)NC1=O` [Example 1338] ({CH2CO}-FYDWV[Bip]R[NMeA][NMeF]RLV[Orn]CG-NH2; thioether N-14): the IC50 stood at 110 nM.
As for `CC(C)C[C@@H]1NC(=O)[C@H](Cc2c[nH]c3ccccc23)NC(=O)[C@H](CC(=O)O)NC(=O)[C@H](Cc2cc(F)c(F)c(F)c2)NC(=O)[C@H](Cc2ccccc2)NC(=O)CSC[C@@H](C(=O)N[C@@H](C)C(N)=O)NC(=O)[C@H](CO)NC(=O)[C@H](C(C)C)NC(=O)[C@H](CC(C)C)NC(=O)[C@H](CC(N)=O)NC(=O)CN(C)C(=O)[C@H](C)N(C)C(=O)[C@H](C(C)C)NC(=O)[C@H](Cc2ccc(-c3ccccc3)cc2)NC1=O` [Example 1146] ({CH2CO}-F[Phe(3,4,5-F3)]DWL[Bip]V[NMeA][Sar]NLVSCA-NH2; thioether N-14), the IC50 was determined as 650 nM.
For the compound `CC(C)C[C@@H]1NC(=O)[C@H](Cc2c[nH]c3ccccc23)NC(=O)[C@H](CC(=O)O)NC(=O)[C@H](Cc2ccc(CN)cc2)NC(=O)[C@H](Cc2ccccc2)NC(=O)CSC[C@@H](C(=O)N[C@@H](C)C(N)=O)NC(=O)[C@H](CO)NC(=O)[C@H](C(C)C)NC(=O)[C@H](CC(C)C)NC(=O)[C@H](CC(N)=O)NC(=O)[C@H]2CCCN2C(=O)[C@H](C)N(C)C(=O)[C@H](C(C)C)NC(=O)[C@H](Cc2ccc(-c3ccccc3)cc2)NC1=O` [Example 1040] ({CH2CO}-F[Phe(4-CH2NH2)]DWL[Bip]V[NMeA][dP]NLVSCA-NH2; thioether N-14), the IC50 is 70 nM.
Consider `Cc1cccc(C[C@@H]2NC(=O)[C@H](CC(=O)O)NC(=O)[C@H](Cc3ccc(OCC(=O)O)cc3)NC(=O)[C@H](CCCNC(=N)N)NC(=O)CSC[C@@H](C(=O)N[C@@H](CCN)C(N)=O)NC(=O)[C@H](CO)NC(=O)[C@H](C(C)(C)O)NC(=O)[C@H](CC3CCCCC3)NC(=O)[C@H](CCN)NC(=O)[C@H]3CCCCN3C(=O)[C@H]3CCCN3C(=O)[C@H](Cc3ccc(OCC(=O)O)cc3)NC(=O)[C@H](Cc3ccc(-c4ccccc4)cc3)NC(=O)[C@H](Cc3ccc(OCC(=O)O)cc3)NC2=O)c1` [Example 1190] ({CH2CO}-RY(Carboxymethyl)D[Phe(3-Me)]Y(Carboxymethyl)[Bip]Y(Carboxymethyl)[dP][dPip][Dab][Cha][Val(3-OH)]SC[Dab]-NH2; thioether N-14), for which the IC50 came to 550 nM.
Take `CC(C)C[C@@H]1NC(=O)[C@H](CCCNC(=N)N)NC(=O)[C@H](Cc2ccccc2)N(C)C(=O)[C@H](C)N(C)C(=O)[C@H](CCC(=O)O)NC(=O)[C@H](Cc2ccc(-c3ccccc3)cc2)NC(=O)[C@H](C(C)C)NC(=O)[C@H](Cc2c[nH]c3ccccc23)NC(=O)[C@H](CC(=O)O)NC(=O)[C@H](Cc2ccc(O)cc2)NC(=O)[C@H](Cc2cnc[nH]2)NC(=O)CSC[C@@H](C(=O)NCC(N)=O)NC(=O)[C@H](CO)NC(=O)[C@H](C(C)C)NC1=O` [Example 1288] ({CH2CO}-HYDWV[Bip]E[NMeA][NMeF]RLVSCG-NH2; thioether N-14): the IC50 was 80 nM.
Regarding `CC(C)C[C@@H]1NC(=O)[C@H](CCCNC(=N)N)NC(=O)[C@H](Cc2ccccc2)N(C)C(=O)[C@H](C)N(C)C(=O)[C@H](CCCNC(=N)N)NC(=O)[C@H](Cc2ccc(-c3ccccc3)cc2)NC(=O)[C@H](C(C)C)NC(=O)[C@H](Cc2c[nH]c3ccccc23)NC(=O)[C@H](CC(=O)O)NC(=O)[C@H](Cc2ccc(O)cc2)NC(=O)[C@H](CCC(N)=O)NC(=O)CSC[C@@H](C(=O)NCC(N)=O)NC(=O)[C@H](CO)NC(=O)[C@H](C(C)C)NC1=O` [Example 1057] ({CH2CO}-QYDWV[Bip]R[NMeA][NMeF]RLVSCG-NH2; thioether N-14), the IC50 is 130 nM.
Turning to `CC(C)C[C@@H]1NC(=O)[C@H](Cc2c[nH]c3ccccc23)NC(=O)[C@H](CC(=O)O)NC(=O)[C@H](Cc2ccc(O)cc2)NC(=O)[C@H](Cc2ccccc2)NC(=O)CSC[C@@H](C(=O)N[C@@H](CCN)C(N)=O)NC(=O)[C@H](CO)NC(=O)[C@H](C(C)C)NC(=O)[C@H](CC(C)C)NC(=O)[C@H](CC(N)=O)NC(=O)CN(C)C(=O)[C@H](C)N(C)C(=O)[C@H](C(C)C)NC(=O)[C@H](Cc2ccc(-c3ccccc3)cc2)NC1=O` [Example 1103] ({CH2CO}-FYDWL[Bip]V[NMeA][Sar]NLVSC[Dab]-NH2; thioether N-14), the IC50 came out at 310 nM.
For the compound `CC(C)C[C@@H]1NC(=O)[C@H](Cc2c[nH]c3ccccc23)NC(=O)[C@H](CC(=O)O)NC(=O)[C@H](Cc2ccc(OCC(=O)O)cc2)NC(=O)[C@H](Cc2ccccc2)NC(=O)CSC[C@@H](C(=O)NCC(N)=O)NC(=O)[C@H](CO)NC(=O)[C@H](C(C)C)NC(=O)[C@H](CC(C)C)NC(=O)[C@H](CC(N)=O)NC(=O)CN(C)C(=O)[C@H](C)N(C)C(=O)[C@H](C(C)C)NC(=O)[C@H](Cc2ccc(-c3ccccc3)cc2)NC1=O` [Example 1030] ({CH2CO}-FY(Carboxymethyl)DWL[Bip]V[NMeA][Sar]NLVSCG-NH2; thioether N-14), the concentration for half-maximal inhibition (IC50) was 60 nM.
Take `CC(C)C[C@@H]1NC(=O)CSC[C@@H](C(=O)NCC(N)=O)NC(=O)[C@H](CO)NC(=O)[C@H](C(C)C)NC(=O)[C@H](CC(C)C)NC(=O)[C@H](CC(N)=O)NC(=O)CN(C)C(=O)[C@H](C)N(C)C(=O)[C@H](C(C)C)NC(=O)[C@H](Cc2ccc(-c3ccccc3)cc2)NC(=O)[C@H](CC(C)C)NC(=O)[C@H](Cc2c[nH]c3ccccc23)NC(=O)[C@H](CC(=O)O)NC(=O)[C@H](Cc2ccc(O)cc2)NC1=O` [Example 1141] ({CH2CO}-LYDWL[Bip]V[NMeA][Sar]NLVSCG-NH2; thioether N-14): the IC50 came to 610 nM.
Turning to `CC(C)C[C@@H]1NC(=O)[C@H](Cc2c[nH]c3ccccc23)NC(=O)[C@H](CC(=O)O)NC(=O)[C@H](Cc2ccc(O)cc2)NC(=O)[C@H](Cc2ccccc2)NC(=O)CSC[C@@H](C(=O)NCC(N)=O)NC(=O)[C@H](CO)NC(=O)[C@H](C(C)C)NC(=O)[C@H](CC(C)C)NC(=O)[C@H](C(C)C)NC(=O)CN(C)C(=O)[C@H](C)N(C)C(=O)[C@H](CCCNC(=N)N)NC(=O)[C@H](Cc2ccc(-c3ccccc3)cc2)NC1=O` [Example 1232] ({CH2CO}-FYDWL[Bip]R[NMeA][Sar]VLVSCG-NH2; thioether N-14), the concentration for half-maximal inhibition (IC50) amounted to 330 nM.
On to `CC(C)C[C@@H]1NC(=O)[C@H](Cc2c[nH]c3ccccc23)NC(=O)[C@H](CC(=O)O)NC(=O)[C@H](Cc2cccnc2)NC(=O)[C@H](Cc2ccccc2)NC(=O)CSC[C@@H](C(=O)N[C@@H](C)C(N)=O)NC(=O)[C@H](CO)NC(=O)[C@H](C(C)C)NC(=O)[C@H](CC(C)C)NC(=O)[C@H](CC(N)=O)NC(=O)CN(C)C(=O)[C@H](C)N(C)C(=O)[C@H](C(C)C)NC(=O)[C@H](Cc2ccc(-c3ccccc3)cc2)NC1=O` [Example 1080] ({CH2CO}-F[3Pal]DWL[Bip]V[NMeA][Sar]NLVSCA-NH2; thioether N-14), for which the IC50 is 230 nM.
Regarding `CC(C)C[C@@H]1NC(=O)[C@H](Cc2c[nH]c3ccccc23)NC(=O)[C@H](CC(=O)O)NC(=O)[C@H](Cc2ccc(O)cc2)NC(=O)[C@H](Cc2ccccc2)NC(=O)CSC[C@@H](C(=O)NCC(N)=O)NC(=O)C(CO)NC(=O)[C@H](C(C)C)NC(=O)[C@H](CC(C)C)NC(=O)[C@H](CC(N)=O)NC(=O)[C@H]2CCCN2C(=O)[C@H](CCCN)NC(=O)[C@H](C(C)C)NC(=O)[C@H](Cc2ccc(-c3ccccc3)cc2)NC1=O` (stereo partly drawn) [Example 1419] ({CH2CO}-FYDWL[Bip]V[Orn][dP]NLV[ξS]CG-NH2; thioether N-14), the IC50 was found to be 120 nM.
In the case of `CCCC[C@@H]1NC(=O)[C@H](CCCNC(=N)N)NC(=O)[C@H](Cc2ccccc2)N(C)C(=O)[C@H](C)N(C)C(=O)[C@H](CCCNC(=N)N)NC(=O)[C@H](Cc2ccc(-c3ccccc3)cc2)NC(=O)[C@H](C(C)C)NC(=O)[C@H](Cc2c[nH]c3ccccc23)NC(=O)[C@H](CC(=O)O)NC(=O)[C@H](Cc2ccc(O)cc2)NC(=O)[C@H](Cc2ccccc2)NC(=O)CSC[C@@H](C(=O)NCC(N)=O)NC(=O)[C@H](CO)NC(=O)[C@H](C(C)C)NC1=O` [Example 1067] ({CH2CO}-FYDWV[Bip]R[NMeA][NMeF]R[Nle]VSCG-NH2; thioether N-14), the IC50 is 160 nM.
Turning to `CC(C)C[C@@H]1NC(=O)[C@H](Cc2c[nH]c3ccccc23)NC(=O)[C@H](CC(=O)O)NC(=O)[C@H](Cc2ccc(O)cc2)NC(=O)[C@H](Cc2ccccc2)NC(=O)CSC[C@@H](C(=O)NCC(N)=O)NC(=O)[C@H]([C@@H](C)O)NC(=O)[C@H](C(C)C)NC(=O)[C@H](CC(C)C)NC(=O)[C@H](CCN)NC(=O)[C@H]2CCCN2C(=O)[C@H](CN)NC(=O)[C@H](C(C)C)NC(=O)[C@H](Cc2ccc(-c3ccccc3)cc2)NC1=O` [Example 1407] ({CH2CO}-FYDWL[Bip]V[Dap][dP][Dab]LVTCG-NH2; thioether N-14), the IC50 turned out to be 280 nM.
Turning to `CC(C)C[C@@H]1NC(=O)[C@H](CCN)NC(=O)[C@H](Cc2ccccc2)N(C)C(=O)[C@H](C)N(C)C(=O)[C@H](CCCNC(=N)N)NC(=O)[C@H](Cc2ccc(-c3ccccc3)cc2)NC(=O)[C@H](C(C)C)NC(=O)[C@H](Cc2c[nH]c3ccccc23)NC(=O)[C@H](CC(=O)O)NC(=O)[C@H](Cc2ccc(O)cc2)NC(=O)[C@H](Cc2cnc[nH]2)NC(=O)CSC[C@@H](C(=O)N[C@@H](C)C(N)=O)NC(=O)[C@H]([C@@H](C)O)NC(=O)[C@H](C(C)C)NC1=O` [Example 1321] ({CH2CO}-HYDWV[Bip]R[NMeA][NMeF][Dab]LVTCA-NH2; thioether N-14), the IC50 is 110 nM.
